From US20250388605A1, “HETEROBIFUNCTIONAL COMPOUNDS AND METHODS OF TREATING DISEASE” (Halda Therapeutics OpCo, Inc., priority 2022, published 2025) come the findings set out here.

Some results are limits rather than exact numbers.

As usually defined, the GI50 is the concentration giving 50% growth inhibition. Low values mean more potent growth inhibition, high ones less potent growth inhibition. The Ki is a dissociation constant, usually derived from enzyme kinetics or from competition with a known ligand. A low value points to a stronger hold on the target.

The test system of one experiment is T-Rex 293 cell line SC cells lacking increased expression of progesterone receptor isoform B protein. Nature of the experiment: Cellular growth inhibition assay, T-Rex 293 SC cells not exposed to doxycycline (no increased progesterone receptor isoform B expression), CellTiter-Glo. Type of experiment: cell-based. The following applies: T-Rex 293 SC cells without doxycycline (no increased PR isoform B), 72 hours. (Cellular ATP, detected with luciferase, serves as a proxy for viable cell number.)
`Cn1cc(-c2cc(C(C)(C)O)ccc2Oc2ccc(N3CC(CN4CC5CC4CN5c4ncc(C(=O)N[C@H]5C(C)(C)[C@H](Oc6ccc(C#N)c(Cl)c6)C5(C)C)cn4)C3)cc2)c2cc[nH]c2c1=O` (stereo partly drawn) [Compound I-228]: the GI50 is less than 500 nM.

In turn, `Cn1cc(-c2cc(C(C)(C)O)ccc2Oc2ccc(N3CC(CC4CCN(c5ncc(C(=O)N[C@H]6C(C)(C)[C@H](Oc7ccc(C#N)c(Cl)c7)C6(C)C)cn5)CC4)C3)cc2)c2cc[nH]c2c1=O` [Compound I-232] returned a GI50 of 500 to 1500 nM.

In turn, `CN(C1CN(c2ccc(Oc3ccc(C(C)(C)O)cc3-c3cn(C)c(=O)c4[nH]ccc34)cc2)C1)C1CN(c2ncc(C(=O)N[C@H]3C(C)(C)[C@H](Oc4ccc(C#N)c(Cl)c4)C3(C)C)cn2)C1` [Compound I-238] came in with a concentration for 50% growth inhibition (GI50) of less than 500 nM.

As to `CN(CC1CCN(c2ncc(C(=O)N[C@H]3C(C)(C)[C@H](Oc4ccc(C#N)c(Cl)c4)C3(C)C)cn2)CC1)C1(c2ccc(Oc3ccc(C(C)(C)O)cc3-c3cn(C)c(=O)c4[nH]ccc34)cc2)COC1` [Compound I-255], the GI50 was in the range of 1500 to 3000 nM.

The compound `Cn1cc(-c2cc(C(C)(C)O)ccc2Oc2ccc(CCCC3CC4(C3)CN(c3ncc(C(=O)N[C@H]5C(C)(C)[C@H](Oc6ccc(C#N)c(Cl)c6)C5(C)C)cn3)C4)cc2)c2cc[nH]c2c1=O` [Compound I-268] displayed a 50% growth inhibitory concentration (GI50) of less than 500 nM.

Compound `Cn1cc(-c2cc(C(C)(C)O)ccc2Oc2ccc(N3CC(CC4CN(c5ncc(C(=O)N[C@H]6C(C)(C)[C@H](Oc7ccc(C#N)c(Cl)c7)C6(C)C)cn5)C4)C3)cc2)c2cc[nH]c2c1=O` [Compound I-280] displayed a concentration for 50% growth inhibition (GI50) of less than 500 nM.

The target in another experiment is T1, progesterone receptor (Homo sapiens, UniProt P06401).
T1 sequence (P06401 679-933 limits assumed): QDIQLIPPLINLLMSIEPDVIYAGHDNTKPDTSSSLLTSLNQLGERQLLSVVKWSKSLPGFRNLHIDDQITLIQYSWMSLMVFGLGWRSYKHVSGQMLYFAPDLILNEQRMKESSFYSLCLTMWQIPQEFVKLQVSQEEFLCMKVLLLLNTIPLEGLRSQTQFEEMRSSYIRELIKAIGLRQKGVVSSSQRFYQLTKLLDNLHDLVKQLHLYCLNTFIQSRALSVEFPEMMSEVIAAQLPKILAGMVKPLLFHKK
Nature of the experiment: PR Human Progesterone NHR Binding (Agonist Radioligand) Assay, [3H]progesterone, T47D cytosolic fractions. The following applies: 0.5 nM [3H]progesterone, 1 hour at 4° C. As to the method: Exemplary compounds were tested for ability to bind to the progesterone receptor.
Compounds were tested using the PR Human Progesterone NHR Binding (Agonist Radioligand) Assay, Cerep at Eurofins Discovery using a modified version of the protocol from Sarup et al. (Cancer Res 1988; 48:5071-5078). Briefly, cytosolic fractions of T47D cells were incubated with 0.5 nM [^3H]progesterone for 1 hour at 4° C. in the absence or presence of the test compound. Nonspecific binding was determined in the presence of […] promegestone. Reactions were subjected to scintillation counting. Results are expressed as a percent inhibition of the control radioligand specific binding.
Consider `CCS(=O)(=O)Nc1ccc(Oc2cccc(CCOC3CCN(c4ncc(C(=O)N[C@H]5C(C)(C)[C@H](Oc6ccc(C#N)c(Cl)c6)C5(C)C)cn4)CC3)c2)c(-c2cn(C)c(=O)c3[nH]ccc23)c1` [Compound I-19], for which the Ki was less than 50 nM.

In the case of `CCS(=O)(=O)c1ccc(Oc2cccc(OCCOC3CCN(c4ccc(C(=O)N[C@H]5C(C)(C)[C@H](Oc6ccc(C#N)c(Cl)c6)C5(C)C)cn4)CC3)c2F)c(-c2cn(C)c(=O)c3[nH]ccc23)c1` [Compound I-185], the Ki is less than 50 nM.

Turning to `Cn1cc(-c2cc(C(C)(C)O)ccc2Oc2ccc(N3CC(CC4CCN(c5ncc(C(=O)N[C@H]6C(C)(C)[C@H](Oc7ccc(C#N)c(Cl)c7)C6(C)C)cn5)CC4)C3)cc2)c2cc[nH]c2c1=O` [Compound I-232], the inhibition constant (Ki) was less than 50 nM.
